Measurements: patent publication US20100003246A1, “Novel heterocyclic compounds and uses therof” (priority 2008, published 2010)

Key:
A375 cells = test: Cell Titer-Glo cell viability assay, A375; assay type: cell-based; details: Homo sapiens, A-375, 72 h; Melanoma cell line A375; 3 days compound incubation; 1000 cells/well
Protocol: (§1) The Cell Titer-Glo® assay (Promega) was used to measure cell viability. Cells were plated into 96-well black walled tissue culture plates in complete growth media. The plates were then incubated under standard growth conditions of 37° C. and 5% CO2 until the cells had attached to the plates (3-6 hours), then compounds were added to the cells. Compounds were serially diluted in DMSO using 3-fold dilutions and then diluted in complete media before being added to the cells (final DMSO concentration on cells was 0.1-0.2%).
(§2) After compound incubation, the cell plates were equilibrated to room temperature, culture media was removed, and 200 uL of Cell Titer-Glo® reagent mix was added to each well (1:1 mixture of Cell Titer-Glo® reagent and complete growth media, equilibrated to room temperature). The plates were shaken for 5-10 minutes, then sealed and luminescence was measured (using Trilux plate reader, Perkin Elmer).
(§3) Analysis of data was done by subtracting the background luminescence value from each data point, then determining the percent inhibition of total growth (as determined by the values for DMSO-treated wells).
(§4) To determine the EC50 for each compound, the data were fit using the Levenburg Marquardt algorithm, represented in the XLfit software as y=A+((B−A)/(1+((C/x)̂D))), the four parameter dose response model 205, where A is the minimum Y value, B is the maximum Y value, C is the Log IC50 and D is the slope.

Malme3M cells = test: Cell Titer-Glo cell viability assay, Malme3M; assay type: cell-based; details: Homo sapiens, Malme-3M, 120 h; Melanoma cell line Malme3M; 5 days compound incubation; 1000 cells/well
Protocol: as §1, §2, §3, §4

SU86.86 cells = test: Cell Titer-Glo cell viability assay, SU86.86; assay type: cell-based; details: Homo sapiens, SU.86.86, 120 h; Pancreatic cell line SU86.86; 5 days compound incubation; 1000 cells/well
Protocol: as §1, §2, §3, §4

G361 cells = test: Cell Titer-Glo cell viability assay, G361; assay type: cell-based; details: Homo sapiens, G-361, 96 h; Melanoma cell line G361; 4 days compound incubation; 1000 cells/well
Protocol: as §1, §2, §3, §4

Capan1 cells = test: Cell Titer-Glo cell viability assay, Capan1; assay type: cell-based; details: Homo sapiens, CAPAN-1, 120 h; Pancreatic cell line Capan1; 5 days compound incubation; 2000 cells/well
Protocol: as §1, §2, §3, §4

K1 cells = test: Cell Titer-Glo cell viability assay, K1; assay type: cell-based; details: 96 h; Papillary thyroid cell line K1; 4 days compound incubation; 1500 cells/well
Protocol: as §1, §2
(§5) Analysis of data was done by subtracting the background luminescence value from each data point, then determining the percent inhibition of total growth (as determined by the values for DMSO-treated wells). […]

PC3MM cells = test: Cell Titer-Glo cell viability assay, PC3MM; assay type: cell-based; details: 120 h; Prostate cell line PC3MM; 5 days compound incubation; 1500 cells/well
Protocol: as §1, §2, §5

b-Raf(V600E) = biological target: T1, b-Raf(V600E) (Homo sapiens, UniProt P15056, V600E); test: Raf/Mek Amplified Luminescence Proximity Homogeneous Assay (Alpha Screen), b-Raf(V600E); assay type: biochemical; details: mutant b-Raf(V600E), read-out: mut-b-RAF (IC50 in uM)
T1 construct: made in house
Outline: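 Active b-Raf(V600E) (~4 pM) pre-incubated 60 min at room temperature with compound and kinase-dead biotinylated Mek (~10 nM) in Tris pH 7.5, MgCl2, BSA, DTT; ATP-started reaction ran 3 h, EDTA-stopped. Phospho-MEK detected by anti-p-MEK AlphaScreen luminescence; IC50 by non-linear regression.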

T1 sequence (P15056 whole entry V600E): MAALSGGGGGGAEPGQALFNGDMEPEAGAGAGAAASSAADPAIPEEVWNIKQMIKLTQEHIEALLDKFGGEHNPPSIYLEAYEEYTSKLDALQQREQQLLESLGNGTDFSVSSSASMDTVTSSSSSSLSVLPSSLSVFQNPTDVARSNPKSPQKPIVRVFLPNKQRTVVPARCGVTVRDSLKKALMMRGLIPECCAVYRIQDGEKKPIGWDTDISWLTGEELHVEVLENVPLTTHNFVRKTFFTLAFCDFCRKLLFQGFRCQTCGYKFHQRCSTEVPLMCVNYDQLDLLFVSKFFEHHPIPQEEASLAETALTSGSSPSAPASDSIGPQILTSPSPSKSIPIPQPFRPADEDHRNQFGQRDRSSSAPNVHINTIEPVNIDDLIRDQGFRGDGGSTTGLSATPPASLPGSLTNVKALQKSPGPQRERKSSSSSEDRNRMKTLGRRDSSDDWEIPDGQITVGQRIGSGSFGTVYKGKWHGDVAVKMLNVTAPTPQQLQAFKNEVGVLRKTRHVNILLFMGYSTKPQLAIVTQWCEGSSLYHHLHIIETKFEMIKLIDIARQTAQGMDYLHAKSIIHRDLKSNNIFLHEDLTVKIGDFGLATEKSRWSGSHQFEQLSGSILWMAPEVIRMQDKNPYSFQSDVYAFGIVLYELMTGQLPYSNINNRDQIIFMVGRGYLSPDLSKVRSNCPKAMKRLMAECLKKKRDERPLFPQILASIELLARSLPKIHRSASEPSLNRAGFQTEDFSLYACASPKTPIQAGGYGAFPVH

Structure (SMILES) | EC50 (A375 cells) [nM] | EC50 (Malme3M cells) [nM] | EC50 (SU86.86 cells) [nM] | EC50 (G361 cells) [nM] | EC50 (Capan1 cells) [nM] | EC50 (K1 cells) [nM] | EC50 (PC3MM cells) [nM] | IC50 (b-Raf(V600E)) [µM]
COc1cc(-c2[nH]c(-c3ccccc3)nc2-c2ccncc2)cnc1N [Compound 1, 3-methoxy-5-(2-phenyl-4-(pyridin-4-yl)-1H-imidazol-5-yl)pyridin-2-amine] | 376 | 429 | 116 | 70 | 570 | – | – | –
COCC(=O)N[C@@H](C)CNc1nccc(-c2[nH]c(-c3ccc(F)cc3)nc2-c2cnc(N)c(OC)n2)n1 [Compound 5, (S)-N-(1-(4-(4-(5-amino-6-methoxypyrazin-2-yl)-2-(4-fluorophenyl)-1H-imidazol-5-yl)pyrimidin-2-ylamino)propan-2-yl)-2-methoxyacetamide] | – | – | 354 | – | – | 892 | – | –
COc1cc(Nc2nccc(-c3[nH]c(C(C)(C)C)nc3-c3cnc(N)c(OC)n3)n2)ccn1 [Compound 9, 4-(4-(5-amino-6-methoxypyrazin-2-yl)-2-tert-butyl-1H-imidazol-5-yl)-N-(2-methoxypyridin-4-yl)pyrimidin-2-amine] | – | – | – | – | – | – | 250 | –
COCC(=O)N[C@@H](C)CNc1nccc(-c2[nH]c(-c3ccc(F)cc3)nc2-c2cnc(N)c(OC)c2)n1 [Compound 163, (S)-N-(1-(4-(4-(6-amino-5-methoxypyridin-3-yl)-2-(4-fluorophenyl)-1H-imidazol-5-yl)pyrimidin-2-ylamino)propan-2-yl)-2-methoxyacetamide] | – | – | 28 | – | 535 | – | 83 | 0.0001
COCC(=O)N[C@@H](C)CNc1nccc(-c2[nH]c(-c3ccc(C(F)(F)F)cc3)nc2-c2cnc(N)c(OC)c2)n1 [Compound 198, (S)-N-(1-(4-(4-(6-amino-5-methoxypyridin-3-yl)-2-(4-(trifluoromethyl)phenyl)-1H-imidazol-5-yl)pyrimidin-2-ylamino)propan-2-yl)-2-methoxyacetamide] | – | – | – | – | – | 787 | – | 0.0003
